Where two headings read alike, the source gives them in different places.
Biological target: T1, RORc ligand binding domain (Homo sapiens, UniProt P51449)
T1 sequence (P51449 269-508 limits assumed): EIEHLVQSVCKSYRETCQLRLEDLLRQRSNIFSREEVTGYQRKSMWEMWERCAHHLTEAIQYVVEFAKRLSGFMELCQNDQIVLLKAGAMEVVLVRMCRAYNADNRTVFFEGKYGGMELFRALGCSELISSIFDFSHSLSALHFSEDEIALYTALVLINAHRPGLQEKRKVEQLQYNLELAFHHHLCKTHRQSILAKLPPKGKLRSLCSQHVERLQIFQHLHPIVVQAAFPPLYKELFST
Assay: In vitro RORc ligand binding assay (25-[3H]hydroxycholesterol displacement)
Experimental: This assay was used to determine a compound's potency in inhibiting activity of RORc by determining, Kiapp, IC50, or percent inhibition values.
On day of the assay, 100 uL of 0.05% CHAPS (in deionized H2O) was added to all wells of the GFB Unifilter plate and allowed soak for 1 h. A wash buffer of 50 mM HEPES (pH 7.4), 150 mM NaCl, and 5 mM MgCl2 was prepared to wash the filter plate. To prepare an assay buffer, BSA was added to the wash buffer to reach 0.01% and DTT was added to reach 1 mM.
The 20× compound stocks were diluted in DMSO with Assay Buffer 4-fold to reach 5× the final test concentration in 25% DMSO (10 uL compound+30 uL Assay Buffer). Solutions were mixed by aspiration several times with a pipette set on 50 uL volume.
For two point screening, 10 mM stock compound solutions were diluted in DMSO to obtain 200 uM (20× the high test concentration) and then diluted 10-fold further to reach 20 uM (20× the low test concentration). The 20× stocks were diluted 4-fold with Assay Buffer (10 uL compound+30 uL Assay Buffer) to reach 5× the test concentrations (50 uM and 5 uM) and 10 uL were added to two assay plates for the duplicate wells. With each concentration tested on 2 plates, each set of 80 compounds used 4 assay plates (1 uM and 10 uM, with n=2).
Nonspecific Binding (NSB) Samples, Total Binding (TB) Samples and No Receptor (No R) Samples
For 25-hydroxycholesterol in 25% DMSO/75% Assay Buffer; 10 uL per well was used for NSB samples. Wells for Total Binding and No Receptor sample determination contained 10 uL of 25% DMSO/75% Assay Buffer per well.
Radioligand 25-[^3H]Hydroxycholesterol) Preparation
Add 20 uL to all wells to reach 6 nM final in the assay.
Stock receptor solution was diluted in assay buffer to obtain 1.5 ug/mL in Assay Buffer. 20 uL was added to all wells. For No R samples, 20 uL Assay Buffer was substituted for receptor solution.
Sample addition to Plates and Incubation
Assay plates were 96-well polypropylene V-bottom plates. […] 10 uL of 25% DMSO/75% Assay Buffer was added to Total Binding or No Receptor wells. 10 uL of 5 uM 25-hydroxycholesterol in 25% DMSO/75% Assay Buffer was added to NSB wells. […] 20 uL of 1.5 ug/mL RORc receptor was added to wells (or 40 uL Assay Buffer to No R wells). Following addition to the wells, the plates were incubated 3 h at 25° C.
Using a Packard Filtermate Harvester, the filter plate were washed 4 times following transfer of the incubated samples. Plates were dry-filtered completely (2 h at 50° C. or overnight at room temperature). 50 uL Microscint 0 was added to all wells and read on Topcount protocol Inverted.
Final concentrations were as follows: 50 mM HEPES buffer (pH 7.4); 150 mM NaCl; 1 mM DTT; 5 mM MgCl2; 0.01% BSA; 5% DMSO; 0.6 ug/mL RORc receptor; 6 nM 25-[^3H]hydroxycholesterol. For NSB wells, 1 uM 25-hydroxycholesterol was also present.

Compound: Cc1cc(CNC2(c3ccc(CN4[C@@H](C)CC[C@H](c5ccccc5)S4(=O)=O)c(F)c3)CCOCC2)no1 [Example 76, 4-[3-fluoro-4-[[(3S,6R)-3-methyl-1,1-dioxo-6-phenyl-thiazinan-2-yl]methyl]phenyl]-N-[(5-methylisoxazol-3-yl)methyl]tetrahydropyran-4-amine]
- IC50: 0.0046 µM

Compound: C[C@H]1CC[C@H](c2ccccc2)S(=O)(=O)N1Cc1ccc(C2(NCc3cocn3)CCOCC2)cc1F [Example 65, 4-[3-fluoro-4-[[(3S,6R)-3-methyl-1,1-dioxo-6-phenyl-thiazinan-2-yl]methyl]phenyl]-N-(oxazol-4-ylmethyl)tetrahydropyran-4-amine]
- IC50: 0.0036 µM

Compound: Cc1cc(N)n(C(=O)C2(c3ccc(CN4[C@@H](C)CC[C@H](c5ccccc5)S4(=O)=O)c(F)c3)CCOCC2)n1 [Example 19]
- IC50: 0.0123 µM

Compound: C[C@H]1CC[C@H](c2ccccc2)S(=O)(=O)N1Cc1cc(F)c(C2(NCc3cnn(C)c3)COC2)cc1F [Example 138, 3-[2,5-difluoro-4-[[(3S,6R)-3-methyl-1,1-dioxo-6-phenyl-thiazinan-2-yl]methyl]phenyl]-N-[(1-methylpyrazol-4-yl)methyl]oxetan-3-amine]
- IC50: 0.0694 µM

Compound: C[C@H]1CC[C@H](c2ccccc2)S(=O)(=O)N1Cc1ccc(C2(C(=O)NCCN3CCC(O)CC3)CCOCC2)cc1F [Example 5]
- IC50: 1.86 µM

Compound: C[C@H]1CC[C@H](c2ccccc2)S(=O)(=O)N1Cc1cc(F)c(C2(NC(=O)c3ncc[nH]3)COC2)cc1F (stereo in doubt) [Example 133, N-[3-[2,5-difluoro-4-[[(3S,6R)-3-methyl-1,1-dioxo-6-phenyl-thiazinan-2-yl]methyl]phenyl]oxetan-3-yl]-1H-imidazole-2-carboxamide]
- IC50: 0.133 µM

Compound: Cc1cc(COC2(c3cc(F)c(CN4[C@@H](C)CC[C@H](c5ccccc5)S4(=O)=O)cc3F)COC2)no1 [Example 110, (3S,6R)-2-[[2,5-difluoro-4-[3-[(5-methylisoxazol-3-yl)methoxy]oxetan-3-yl]phenyl]methyl]-3-methyl-6-phenyl-thiazinane 1,1-dioxide]
- IC50: 0.0013 µM

Compound: C[C@H]1CC[C@H](c2ccccc2)S(=O)(=O)N1Cc1cc(F)c(C2(c3n[nH]c(=O)o3)CC(F)(F)C2)cc1F [Example 126, 5-[1-[2,5-difluoro-4-[[(3S,6R)-3-methyl-1,1-dioxo-6-phenyl-thiazinan-2-yl]methyl]phenyl]-3,3-difluoro-cyclobutyl]-3H-1,3,4-oxadiazol-2-one]
- IC50: 0.0027 µM

Compound: C[C@H]1CC[C@H](c2ccccc2)S(=O)(=O)N1Cc1cc(F)c(C2(c3n[nH]c(=O)o3)CCC2)cc1F [Example 144, 5-[1-[2,5-difluoro-4-[[(3S,6R)-3-methyl-1,1-dioxo-6-phenyl-thiazinan-2-yl]methyl]phenyl]cyclobutyl]-3H-1,3,4-oxadiazol-2-one]
- IC50: 0.0094 µM

Compound: C[C@H]1CC[C@H](c2ccccc2)S(=O)(=O)N1Cc1cc(F)c([C@]2(c3n[nH]c(=O)o3)C[C@@H]2CO)cc1F [Example 150, 5-[(1S,2S)-1-[2,5-difluoro-4-[[(3S,6R)-3-mcthyl-1,1-dioxo-6-phenyl-thiazinan-2-yl]methyl]phenyl]-2-(hydroxymethyl)cyclopropyl]-3H-1,3,4-oxadiazol-2-one]
- IC50: 0.039 µM

Compound: C[C@H]1CC[C@H](c2ccccc2)S(=O)(=O)N1Cc1cc(F)c(C2(N(C)Cc3cocn3)CCOCC2)cc1F [Example 81, 4-[2,5-difluoro-4-[[(3S,6R)-3-methyl-1,1-dioxo-6-phenyl-thiazinan-2-yl]methyl]phenyl]-N-methyl-N-(oxazol-4-ylmethyl)tetrahydropyran-4-amine]
- IC50: 0.0088 µM

Compound: C[C@H]1CC[C@H](c2ccccc2)S(=O)(=O)N1Cc1cc(F)c(C2(NCc3cc[nH]n3)COC2)cc1F [Example 84, 3-[2,5-difluoro-4-[[(3S,6R)-3-methyl-1,1-dioxo-6-phenyl-thiazinan-2-yl]methyl]phenyl]-N-(1H-pyrazol-3-ylmethyl)oxetan-3-amine]
- IC50: 0.0057 µM

Compound: C[C@H]1CC[C@H](c2ccccc2)S(=O)(=O)N1Cc1cc(F)c([C@]2(c3n[nH]c(=O)o3)C[C@@](O)(CC#N)C2)cc1F (racemic) [Example 176, 2-[3-[2,5-difluoro-4-[[rac-(3S,6R)-3-methyl-1,1-dioxo-6-phenyl-thiazinan-2-yl]methyl]phenyl]-1-hydroxy-3-(2-oxo-3H-1,3,4-oxadiazol-5-yl)cyclobutyl]acetonitrile]
- IC50: 0.0054 µM

Compound: C[C@H]1CC[C@H](c2ccccc2)S(=O)(=O)N1Cc1cc(F)c(C2(N3CC(=O)NC3=O)COC2)cc1F [Example 117, 1-[3-[2,5-difluoro-4-[[(3S,6R)-3-methyl-1,1-dioxo-6-phenyl-thiazinan-2-yl]methyl]phenyl]oxetan-3-yl]imidazolidine-2,4-dione]
- IC50: 0.0259 µM

Compound: C[C@H]1CC[C@H](c2ccccc2)S(=O)(=O)N1Cc1cc(F)c(C2(NCc3ccon3)COC2)cc1F [Example 103, 3-[2,5-difluoro-4-[[(3S,6R)-3-methyl-1,1-dioxo-6-phenyl-thiazinan-2-yl]methyl]phenyl]-N-(isoxazol-3-ylmethyl)oxetan-3-amine]
- IC50: 0.0015 µM

Compound: C[C@H]1CC[C@H](c2ccccc2)S(=O)(=O)N1Cc1cc(F)c([C@]2(c3c[nH]c(=O)[nH]3)C[C@](C)(O)C2)cc1F (racemic) [Example 185, 4-[1-[2,5-difluoro-4-[[rac-(3S,6R)-3-methyl-1,1-dioxo-6-phenyl-thiazinan-2-yl]methyl]phenyl]-3-hydroxy-3-methyl-cyclobutyl]-1,3-dihydroimidazol-2-one]
- IC50: 0.019 µM

Compound: C[C@H]1CC[C@H](c2ccccc2)S(=O)(=O)N1Cc1cc(F)c(C2(OCc3nnc[nH]3)CC3(COC3)C2)cc1F [Example 122, (3S,6R)-2-[[2,5-difluoro-4-[6-(4H-1,2,4-triazol-3-ylmethoxy)-2-oxaspiro[3.3]heptan-6-yl]phenyl]methyl]-3-methyl-6-phenyl-thiazinane 1,1-dioxide]
- IC50: 0.0027 µM

Compound: C[C@H]1CC[C@H](c2ccccc2)S(=O)(=O)N1Cc1cc(F)c(C2(NCC3COC(=O)N3)COC2)cc1F (stereo partly drawn) [Example 125, 4-[[[3-[2,5-difluoro-4-[[(3S,6R)-3-methyl-1,1-dioxo-6-phenyl-thiazinan-2-yl]methyl]phenyl]oxetan-3-yl]amino]methyl]oxazolidin-2-one]
- IC50: 0.0566 µM

Compound: C[C@H]1CC[C@H](c2ccccc2)S(=O)(=O)N1Cc1cc(F)c(C2(C(=O)N3CC[C@H](O)C3)CCOCC2)cc1F [Example 34, [4-[2,5-difluoro-4-[[(3S,6R)-3-methyl-1,1-dioxo-6-phenyl-thiazinan-2-yl]methyl]phenyl]tetrahydropyran-4-yl]-[(3S)-3-hydroxypyrrolidin-1-yl]methanone]
- IC50: 0.0985 µM

Compound: C[C@H]1CC[C@H](c2ccccc2)S(=O)(=O)N1Cc1ccc(C2(NCc3ncccn3)CCOCC2)cc1F [Example 67, 4-[3-fluoro-4-[[(3S,6R)-3-methyl-1,1-dioxo-6-phenyl-thiazinan-2-yl]methyl]phenyl]-N-(pyrimidin-2-ylmethyl)tetrahydropyran-4-amine]
- IC50: 0.0093 µM

Compound: C[C@H]1CC[C@H](c2ccccc2)S(=O)(=O)N1Cc1ccc(C2(Cn3cnnc3)CCOCC2)cc1F [Example 40, (3S,6R)-2-[[2-fluoro-4-[4-(1,2,4-triazol-4-ylmethyl)tetrahydropyran-4-yl]phenyl]methyl]-3-methyl-6-phenyl-thiazinane 1,1-dioxide]
- IC50: 0.118 µM

Compound: C[C@H]1CC[C@H](c2ccccc2)S(=O)(=O)N1Cc1cc(F)c([C@]2([C@@H](O)Cc3ncn[nH]3)C[C@](C)(O)C2)cc1F (racemic) [Example 170, 3-[2,5-difluoro-4-[[rac-(3S,6R)-3-methyl-1,1-dioxo-6-phenyl-thiazinan-2-yl]methyl]phenyl]-1-methyl-3-[rac-(1S)-1-hydroxy-2-(1H-1,2,4-triazol-5-yl)ethyl]cyclobutanol]
- IC50: 0.0295 µM

Compound: C[C@H]1CC[C@H](c2ccccc2)S(=O)(=O)N1Cc1ccc(C2(C(=O)NC3(C)COC3)CCOCC2)cc1F [Example 9, 4-[3-fluoro-4-[[(3S,6R)-3-methyl-1,1-dioxo-6-phenyl-thiazinan-2-yl]methyl]phenyl]-N-(3-methyloxetan-3-yl)tetrahydropyran-4-carboxamide]
- IC50: 0.144 µM

Compound: C[C@H]1CC[C@H](c2ccccc2)S(=O)(=O)N1Cc1cc(F)c([C@]2(c3n[nH]c(=O)o3)C[C@@](O)(C3CC3)C2)cc1F [Example 142, trans 5-[3-cyclopropyl-1-[2,5-difluoro-4-[[(3S,6R)-3-methyl-1,1-dioxo-6-phenyl-thiazinan-2-yl]methyl]phenyl]-3-hydroxy-cyclobutyl]-3H-1,3,4-oxadiazol-2-one]
- IC50: 0.0043 µM

Compound: C[C@H]1CC[C@H](c2ccccc2)S(=O)(=O)N1Cc1cc(F)c(C2(NCc3ccn(C)n3)CCOCC2)cc1F [Example 91, 4-[2,5-difluoro-4-[[(3S,6R)-3-methyl-1,1-dioxo-6-phenyl-thiazinan-2-yl]methyl]phenyl]-N-[(1-methylpyrazol-3-yl)methyl]tetrahydropyran-4-amine]
- IC50: 0.0826 µM

Compound: C[C@H]1CC[C@H](c2ccccc2)S(=O)(=O)N1Cc1cc(F)c([C@]2(NC(=O)c3csnn3)C[C@](C)(O)C2)cc1F (racemic) [Example 181, N-[1-[2,5-difluoro-4-[[rac-(3S,6R)-3-methyl-1,1-dioxo-6-phenyl-thiazinan-2-yl]methyl]phenyl]-3-hydroxy-3-methyl-cyclobutyl]thiadiazole-4-carboxamide]
- IC50: 0.013 µM

Compound: C[C@H]1CC[C@H](c2ccccc2)S(=O)(=O)N1Cc1ccc(C2(NCc3cnc[nH]3)CCOCC2)cc1F [Example 62, 4-[3-fluoro-4-[[(3S,6R)-3-methyl-1,1-dioxo-6-phenyl-thiazinan-2-yl]methyl]phenyl]-N-(1H-imidazol-5-ylmethyl)tetrahydropyran-4-amine]
- IC50: 0.0205 µM

Compound: cis 5-[1-[2,5-difluoro-4-[[(3S,6R)-3- methyl-1,1-dioxo-6-phenyl-thiazinan-2- yl]methyl]phenyl]-3-hydroxy-3- (trifluoromethyl)cyclobutyl]-3H-1,3,4- oxadiazol-2-one [Example 148]
- IC50 (IC50 values for RORc): 0.011 µM
